Test results as given in PMC3849221 (NeuroImage, 2013).
Several values for one entry are separate records, joined by “and”; a condition that tells them apart may be missing. Equal entries are not always repeated. Entries after “also recorded” stand apart in the source; their conditions may differ.

Columns and labels:
Lipophilicity LogD7.4 = type: physicochemical; details: n-octanol / 0.15 M sodium phosphate buffer pH 7.4, room temperature, 6 measurements
CB1 receptor = CB1 receptor (Homo sapiens, UniProt P21554); test: Human brain PET with 11C-SD5024, compartmental modeling; type: in vivo; details: for VT / K1 / k2 / vB (%): one-tissue compartment model, mean±SD; for VT: 120 min; for K1 / k2 / vB (%): seven subjects; for Intersubject Variability of VT (SD/mean): n=7, 120min
[1] = Measurement of 11C-SD5024 in human arterial plasma; type: in vivo
[2] = Pharmacological effects of injected 11C-SD5024 in healthy subjects; type: in vivo; details: human, injected mass dose 242±47 pmol/kg, n=7
CB1 receptors = CB1 receptors (Macaca mulatta, UniProt Q71SP5); test: Monkey brain PET with 11C-SD5024, baseline and rimonabant pre-blocked scans; details: for VT Baseline: one value per monkey; for VT Preblocked: rimonabant 3 mg/kg i.v.
[3] = monkey striatum, calculated from caudate and putamen (Table 2)

Chain of CB1 receptor (P21554 whole entry): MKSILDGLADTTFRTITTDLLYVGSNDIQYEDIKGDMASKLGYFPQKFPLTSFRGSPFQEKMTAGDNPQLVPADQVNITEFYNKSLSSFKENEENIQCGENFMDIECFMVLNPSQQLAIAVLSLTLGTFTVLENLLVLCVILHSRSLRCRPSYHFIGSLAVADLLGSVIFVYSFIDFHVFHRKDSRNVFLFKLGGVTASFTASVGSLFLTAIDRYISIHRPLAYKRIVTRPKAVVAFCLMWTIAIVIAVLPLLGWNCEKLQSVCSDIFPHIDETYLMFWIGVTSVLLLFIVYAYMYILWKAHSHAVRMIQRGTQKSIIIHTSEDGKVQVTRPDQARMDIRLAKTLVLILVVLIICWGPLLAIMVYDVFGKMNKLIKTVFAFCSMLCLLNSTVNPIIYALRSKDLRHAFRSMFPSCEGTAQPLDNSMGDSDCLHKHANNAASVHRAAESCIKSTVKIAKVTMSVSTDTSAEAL
Chain of CB1 receptors (Q71SP5 whole entry): as the sequence (P21554 whole entry) above

N#[11C]c1ccc(S(=O)(=O)NC(=N)N2CC(c3ccccc3)C(c3ccc(Cl)cc3)=N2)cc1 (stereo not drawn) [^11C-SD5024, [cyano-^11C](−)-3-(4-chlorophenyl)-N-[(4-cyanophenyl)sulfonyl]-4-phenyl-4,5-dihydro-1H-pyrazole-1-carboxamidine]
LogD7.4 (Lipophilicity LogD7.4): 3.79±0.09 | decrease of brain radioactivity from peak time (40 min) to end of scan (120 min) (CB1 receptor): 20% | time of peak brain activity (CB1 receptor): ~ 40 min | VT (CB1 receptor; Caudate, n=7): 2.31±0.55 mL·cm^−3 | K1 (CB1 receptor; Caudate): 0.028±0.005 mL/cm^3/min | k2 (CB1 receptor; Caudate): 0.013 ± 0.003 min⁻¹ | vB (%) (CB1 receptor; Caudate): 3.7±0.67% | VT (CB1 receptor; Cerebellum, n=7): 1.93±0.38 mL·cm^−3 | K1 (CB1 receptor; Cerebellum): 0.030±0.006 mL/cm^3/min | k2 (CB1 receptor; Cerebellum): 0.016 ± 0.003 min⁻¹ | vB (%) (CB1 receptor; Cerebellum): 6.4±0.69% | VT (CB1 receptor; Cingulate, n=7): 2.79±0.58 mL·cm^−3 | K1 (CB1 receptor; Cingulate): 0.029±0.006 mL/cm^3/min | k2 (CB1 receptor; Cingulate): 0.011 ± 0.002 min⁻¹ | vB (%) (CB1 receptor; Cingulate): 5.0±0.58% | Intersubject Variability of VT (SD/mean) (CB1 receptor; Frontal): 21% | VT (CB1 receptor; Frontal, n=7): 2.57±0.54 mL·cm^−3 | K1 (CB1 receptor; Frontal): 0.032±0.006 mL/cm^3/min | k2 (CB1 receptor; Frontal): 0.013 ± 0.003 min⁻¹ | vB (%) (CB1 receptor; Frontal): 4.4±0.66% | VT (CB1 receptor; Lateral temporal, n=7): 2.66±0.57 mL·cm^−3 | K1 (CB1 receptor; Lateral temporal): 0.032±0.007 mL/cm^3/min | k2 (CB1 receptor; Lateral temporal): 0.012 ± 0.002 min⁻¹ | vB (%) (CB1 receptor; Lateral temporal): 5.2±0.64% | VT (CB1 receptor; Medial temporal, n=7): 2.48±0.65 mL·cm^−3 | K1 (CB1 receptor; Medial temporal): 0.023±0.005 mL/cm^3/min | k2 (CB1 receptor; Medial temporal): 0.010 ± 0.002 min⁻¹ | vB (%) (CB1 receptor; Medial temporal): 5.3±0.58% | VT (CB1 receptor; Occipital, n=7): 2.00±0.38 mL·cm^−3 | K1 (CB1 receptor; Occipital): 0.035±0.007 mL/cm^3/min | k2 (CB1 receptor; Occipital): 0.018 ± 0.003 min⁻¹ | vB (%) (CB1 receptor; Occipital): 5.9±0.49% | VT (CB1 receptor; Parietal, n=7): 2.44±0.50 mL·cm^−3 | K1 (CB1 receptor; Parietal): 0.034±0.006 mL/cm^3/min | k2 (CB1 receptor; Parietal): 0.014 ± 0.003 min⁻¹ | vB (%) (CB1 receptor; Parietal): 4.8±0.50% | Intersubject Variability of VT (SD/mean) (CB1 receptor; Putamen): 22% | VT (CB1 receptor; Putamen, n=7): 3.16±0.70 mL·cm^−3 | K1 (CB1 receptor; Putamen): 0.038±0.008 mL/cm^3/min | k2 (CB1 receptor; Putamen): 0.012 ± 0.003 min⁻¹ | vB (%) (CB1 receptor; Putamen): 4.0±0.79% | peak brain uptake of 11C-SD5024 higher than that of 11C-OMAR by (CB1 receptor; Table 5): about 40% | peak brain uptake of 11C-SD5024 lower than that of 11C-MePPEP by (CB1 receptor; Table 5): about 20% | peak brain uptake of 11C-SD5024 relative to 11C-OMAR (CB1 receptor; Table 5): ~ 1.4 times | VT of 11C-SD5024 relative to 11C-OMAR (CB1 receptor; Table 6): about twice higher; also recorded: about two-fold greater; also recorded: about twice greater | Intersubject Variability of VT (SD/mean) (CB1 receptor; Thalamus): 24% | VT (CB1 receptor; Thalamus, n=7): 1.71±0.41 mL·cm^−3 | K1 (CB1 receptor; Thalamus): 0.029±0.006 mL/cm^3/min | k2 (CB1 receptor; Thalamus): 0.017 ± 0.004 min⁻¹ | vB (%) (CB1 receptor; Thalamus): 4.6±0.49% | accumulation of radiometabolites in brain (CB1 receptor; from time stability of VT): do not significantly accumulate in brain | intersubject variability for VT (Table 6) (CB1 receptor; n=7): ~ 24% | intersubject variability of VT, average value (CB1 receptor; n=7): 22% | average SE of VT across brain regions (identifiability) (CB1 receptor; one-compartment model): 1.8% | scan duration adequate to measure VT / CB1 receptors (CB1 receptor; truncation of the 120-min scan): 80 min | free fraction in plasma (fP) [1]: too low to measure accurately | time of peak concentration in arterial plasma [1]: 75 s | peak concentration in arterial plasma ([1]; after i.v. injection): 24±8 SUV | fraction of parent as percentage of total plasma radioactivity ([1]; at 75 min): 51±13% | plasma concentrations of 11C-SD5024 relative to 11C-MePPEP ([1]; from 30 to 120 min): five-times | pharmacological effects (subjective reports, vital signs, laboratory tests) [2]: no pharmacological effects | specific binding as proportion of VT (CB1 receptors; monkey brain, baseline vs receptor blockade with rimonabant 3 mg/kg i.v.): ~ 80% | Specific binding (%) (CB1 receptors; monkey striatum, (VT baseline – VT preblock)/VT baseline): 82% | VT (striatum) Baseline (CB1 receptors; [3]): 2.36 mL·cm^−3 | VT (striatum) Preblocked (CB1 receptors; [3]): 0.44 mL·cm^−3 | Specific binding (%) (CB1 receptors; monkey, Caudate, (VT baseline – VT preblocked)/VT baseline): 82% and 79% | VT Baseline (CB1 receptors; monkey, Caudate): 1.62 mL · cm^−3 and 2.79 mL · cm^−3 | VT Preblocked (CB1 receptors; monkey, Caudate): 0.30 mL · cm^−3 and 0.60 mL · cm^−3 | Specific binding (%) (CB1 receptors; monkey, Cerebellum, (VT baseline – VT preblocked)/VT baseline): 79% and 78% | VT Baseline (CB1 receptors; monkey, Cerebellum): 1.27 mL · cm^−3 and 2.34 mL · cm^−3 | VT Preblocked (CB1 receptors; monkey, Cerebellum): 0.27 mL · cm^−3 and 0.51 mL · cm^−3 | Specific binding (%) (CB1 receptors; monkey, Cingulate, (VT baseline – VT preblocked)/VT baseline): 84% and 82% | VT Baseline (CB1 receptors; monkey, Cingulate): 1.74 mL · cm^−3 and 3.58 mL · cm^−3 | Specific binding (%) (CB1 receptors; monkey, Frontal Ctx, (VT baseline – VT preblocked)/VT baseline): 79% and 72% | VT Baseline (CB1 receptors; monkey, Frontal Ctx): 1.77 mL · cm^−3 and 3.13 mL · cm^−3 | Specific binding (%) (CB1 receptors; monkey, Lateral Temporal Ctx, (VT baseline – VT preblocked)/VT baseline): 81% and 77% | VT Baseline (CB1 receptors; monkey, Lateral Temporal Ctx): 1.32 mL · cm^−3 and 2.52 mL · cm^−3 | Specific binding (%) (CB1 receptors; monkey, Medial Temporal Ctx, (VT baseline – VT preblocked)/VT baseline): 71% | VT Baseline (CB1 receptors; monkey, Medial Temporal Ctx): 1.33 mL · cm^−3 and 2.54 mL · cm^−3 | VT Preblocked (CB1 receptors; monkey, Medial Temporal Ctx): 0.39 mL · cm^−3 and 0.75 mL · cm^−3 | Specific binding (%) (CB1 receptors; monkey, Occipital Ctx, (VT baseline – VT preblocked)/VT baseline): 78% and 71% | VT Baseline (CB1 receptors; monkey, Occipital Ctx): 1.07 mL · cm^−3 and 2.00 mL · cm^−3 | Specific binding (%) (CB1 receptors; monkey, Parietal Ctx, (VT baseline – VT preblocked)/VT baseline): 81% and 74% | VT Baseline (CB1 receptors; monkey, Parietal Ctx): 1.39 mL · cm^−3 and 2.70 mL · cm^−3 | Specific binding (%) (CB1 receptors; monkey, Putamen, (VT baseline – VT preblocked)/VT baseline): 83% and 81% | VT Baseline (CB1 receptors; monkey, Putamen): 1.84 mL · cm^−3 and 3.04 mL · cm^−3 | VT Preblocked (CB1 receptors; monkey, Putamen): 0.31 mL · cm^−3 and 0.56 mL · cm^−3 | Specific binding (%) (CB1 receptors; monkey, Thalamus, (VT baseline – VT preblocked)/VT baseline): 64% and 68% | VT Baseline (CB1 receptors; monkey, Thalamus): 0.83 mL · cm^−3 and 1.85 mL · cm^−3 | VT Preblocked (CB1 receptors; monkey, Thalamus): 0.30 mL · cm^−3 and 0.59 mL · cm^−3 | time of peak brain activity (CB1 receptors; monkey, baseline): ~ 60 min | brain activity (peak) (CB1 receptors; monkey, baseline, after i.v. injection): ~ 2 SUV | average SE of VT across brain regions (identifiability) (CB1 receptors; monkey, one-compartment model): 3.8%
